{
  "source": "patent US12391646B2",
  "about": "“Using adiponectin receptor agonists to treat inflammation and bone diseases in diabetes” (Trustees of Tufts College, priority 2020, dated 2025)",
  "assay_type_in_all_cases": "cell-based",
  "key": {"[1]": {"test_system": "RAW 264.7 cells in high glucose medium", "test": "Osteoclastogenesis and autophagy of RANKL-treated RAW 264.7 cells in high glucose medium", "settings": "high glucose medium", "method": "FIG. 20 RAW 264.7 cells were treated with RANKL (100 ng/ml) with or without AdipoRon ([…]) or AdipoAI (5 μM) in low (5 mmol/l) glucose, 20 mmol/l D-mannitol or high (25 mmol/l) glucose medium. qRT-PCR analysis of cathepsin K (A), TRAP (B) and microtubule associated protein 1 light chain 3 (LC3) (C), and mRNA expression were calculated (n≥3). (D) Western blot analysis of LC3A/B protein levels normalized to β-actin. (E) The mean of protein/β-actin ratios normalized to 1.0 (RANKL-AdipoRon-AdipoAI-H group) quantified by densitometry. (F) Autophagosome images obtained with laser confocal microscopy after the RAW 264.7 cells were transfected with a GFP-LC3 plasmid and treated with RANKL and AdipoRon or AdipoAI (scale bar=50 μm). Data are shown as mean±SD. *, P<0.05. **P<0.01. ***P<0.001.\nFIG. 21 Autophagy inhibitor reverses AdipoAI-inhibited osteoclastogenesis in high glucose medium. RAW 264.7 cells were treated with RANKL (100 ng/ml) in 2 days and with or without AdipoAI (5 μM) for 24 hours followed by 3-methyladenine (3-MA, 2.5 mM) treatment for another 24 hours in high glucose medium. qRT-PCR analysis of cathepsin K (A), TRAP (B) and LC3 (C) mRNA expression were calculated (n≥3). (D) Western blot analysis of LC3A/B protein levels normalized to β-actin. (E) The mean of protein/β-actin ratios normalized to 1.0 (3-MA-, RANKL-, AdipoAI-group) quantified by densitometry. Data are shown as mean±SD. *, P<0.05. **P<0.01. ***P<0.001.\nFIG. 22 AdipoAI-induced autophagy of osteoclasts in high glucose medium via AKT1/mTOR signaling pathway. RAW 264.7 cells were induced with RANKL for 2 days and then treated with or without (5 μM) additional 24 hours after serum starvation for 4 hours. Then, the cells were treated with RANKL, AdipoAI or SC79 (5 μM), an AKT activator, for another 24 hours in high glucose medium. qRT-PCR analysis of mRNA expression of cathepsin K (A), TRAP (B) and LC3 (C) were calculated (n≥3). (D) Representative images show the protein expression levels of AKT, p-AKT, AKT1, p-AKT1, mTOR, p-mTOR, and LC3A/B in osteoclasts. Quantitative analysis of bands is shown in (E-K) (n≥3). Data are shown as mean±SD. *, P<0.05. **P<0.01. ***P<0.001. R: RANKL. A, AI: AdipoAI. SC5: SC79 (5 μM).\nRAW 264.7 cells (ATCC, Manassas, VA, USA) were cultured and passaged in DMEM supplemented with 10% (v/v) FBS (Invitrogen, Grand Island, NY, USA) and 1% Penicillin-Streptomycin (Gibco, Gaithersburg, MD, USA). For the induction of osteoclastogenesis, RAW 264.7 cells were cultured 24 in α-MEM supplemented with 10% FBS and 1% Penicillin-Streptomycin in the presence of 100 ng/ml RANKL (Peprotech, Rocky Hill, NJ, USA) for 2 days, and subsequently treated or not with AdipoRon or AdipoAI for another 2 days changing cell culture medium every 2 days. After a total of […] of culture, morphologic examination was performed, as was mRNA and protein expression. To simulate high glucose environment in vitro, α-MEM was supplemented with D-glucose to 25 mmol/l (high glucose) or 5 mmol/l (physiological glucose). 20 mmol/l D-mannitol served as an osmotic control.\nTotal RNA was isolated from cell cultures and gingival soft tissues using TriZol reagent (Life Technologies, Carlsbad, CA, USA) according to the manufacturer's instructions^24. Reverse transcription was performed using the PrimeScript RT Master Mix (Takara Bio, Otsu, Japan) and real-time-qPCR analyses were performed using SYBR-Green Real-Time PCR Master Mix (Takara Bio, Otsu, Japan) as described earlier^27.\nTotal cellular extracts were prepared using RIPA Lysis and Extraction Buffer containing three Protease Inhibitors (Santa Cruz, Dallas, TX, USA). Western blot analyses were performed as previously described 24. Antibodies for β-actin (1:2000) and GAPDH (1:5000), LC3A/B (1:1000), AKT1 (1:1000), p-AKT1 (1:1000), AKT (1:1000), p-AKT (1:1000), mTOR (1:1000), p-mTOR (1:1000) were purchased from Abcam and Cell Signaling Technology, respectively. SC79, an AKT activator was purchased from Sigma Aldrich. […]"}, "[2]": {"test_system": "Raw264.7 cells", "test": "CCK-8 cytotoxicity assay, 24 hours", "settings": "at 40 μM or lower concentrations", "method": "(§1) FIG. 1 Characterization of anti-inflammatory properties of APR-like compounds. (a) Raw264.7 cells were pretreated with APR (20 μM) or new compounds 1 to 10 (5 μM) for 24 h followed by incubation with LPS (100 ng/mL) for an additional 6 h. IL-6 and IL-1β mRNA expression levels were evaluated by qPCR and normalized with GAPDH mRNA level. (b) Raw264.7 cells were pretreated with different doses of AdipoAI for 24 h followed by incubation with LPS (100 ng/mL) for additional 6 h to evaluate dose-dependency of AdipoAI in inhibiting IL-6 and IL-1β mRNA expression levels by qRT-PCR and normalized with GAPDH mRNA level. (c) Evaluation of cytotoxicity of APR, AdipoAI and compound 5 by CCK8 assay in Raw264.7 cells treated for 24 hours. (d) BMMs were pretreated with APR (20 μM), AdipoAI (5 μM) or compound 5 (5 μM) for 24 h followed by incubation with LPS (100 ng/ml) for additional 6 h for the measurement of IL-6 and IL-1β mRNA expression levels by qRT-PCR and normalized with GAPDH mRNA level. Data were expressed as the mean±SEM at five biological independent experiments. One-way ANOVA test for multiple-group comparisons, *P<0.05, significant differences between each indicated group.\nRaw264.7 cells were seeded at 2×10^3 cells/well in 96-well plates for 16 hours and then serum-starved for 6 hours. Cells were maintained in DMEM in the presence of different concentrations of APR (AdipoGen Life Sciences, San Diego, CA, USA) and compounds for 24 hours. […] The detailed group assignment is shown in the individual figure legends."}, "[3]": {"test_system": "LPS-stimulated RAW 264.7 macrophages", "test": "qPCR of cytokine mRNA in LPS-stimulated RAW 264.7 macrophages", "settings": "compounds at 5 μM vs APR at 20 μM, 24 h pretreatment, then LPS 100 ng/mL 6 h", "method": "as §1\nRAW 264.7 macrophage cell line was purchased from ATCC (Manassas, VA, USA) and maintained in DMEM (Gibco, Life Technologies, Carlsbad, CA, USA) supplemented with 10% (v.v-1) FBS (Gibco, Life Technologies) and 1% (v.v-1) penicillin/streptomycin (Gibco, Life Technologies). The cells were routinely cultured in an incubator at 37° C. in a humidified atmosphere of 5% CO2.\nTotal RNA of cells was extracted using Quick-RNA Miniprep Kit (ZYMO Research, Irvine, CA, USA) and total RNA from mouse tissues was prepared with TriZol reagent (Life Technologies) according to the manufacturer's instructions followed by qRT-PCR assays as described previously (L. Zhang et al., 2014). 1 μg of total RNA was used for reverse transcription using the M-MLV Reverse Transcriptase (Thermo Scientific, Waltham, MA, USA) according to the manufacturer's protocol using PowerUp SYBR Green Master Mix (Thermo Scientific) on a Bio-Rad iQ5 thermal cycler (Bio-Rad Laboratories, Hercules, CA, USA). Differences in expression were evaluated by the comparative cycle threshold method using GAPDH or β-actin as a control. The primer sequences used for the qRT-PCR experiments are listed in supplemental Table 1.\nMacrophages were seeded at a density of 5×10^5 cells/well in 12-well plates. After overnight incubation, the cells were transfected for 24 h with siRNAs targeting specific genes or scrambled control siRNAs using HiPerFect Transfection Reagent (Qiagen, Hilden, Germany) according to the manufacturer's guidelines. Gene silencing efficiency was monitored by qPCR or Western blot analysis. The siRNA duplexes used in this study were chemically synthesized by Thermo Scientific."}},
  "data": [
    {"smiles": "Cn1cnc(N)c2ncnc1-2", "note": "[3-methyladenine, reference compound]", "values": [
      {"measurement": "LC3 mRNA and LC3II protein induced by AdipoAI", "setting": "[1]; 3-MA 2.5 mM 24 hours", "value": "decreased the mRNA expression of LC3 and protein expression of LC3II induced by AdipoAI"},
      {"measurement": "AdipoAI-inhibited mRNA expression of Cathepsin K and TRAP", "setting": "[1]; 3-MA 2.5 mM", "value": "reversed the AdipoAI-inhibited mRNA expression of osteoclastogenesis markers Cathepsin K and TRAP"}
    ]},
    {"smiles": "CC(c1ccccc1)N1CCC(NC(=O)COc2ccc(C(=O)c3ccc(Cl)cc3)cc2)CC1", "note": "(stereo not drawn) [Compound 5]", "values": [
      {"measurement": "cytotoxic effects (CCK-8)", "setting": "[2]", "value": "neither of the 3 small molecules mediated significant cytotoxic effects"},
      {"measurement": "inhibition of IL-6 and IL1-β mRNA expression", "setting": "[3]", "value": "stronger inhibitory effects than APR"}
    ]},
    {"smiles": "CCOC(=O)C1=C(N)Oc2ccc(Cl)cc2C1C(C#N)C(=O)OCC", "note": "(stereo not drawn) [SC79, reference compound]", "values": [
      {"measurement": "LC3II, AKT expression and AKT, AKT1, mTOR phosphorylation changes induced by AdipoAI", "setting": "[1]; SC79 5 μM", "value": "reverses the promoted expression of LC3II"},
      {"measurement": "LC3 mRNA and osteoclastogenic marker mRNA under AdipoAI", "setting": "[1]; SC79 5 μM", "value": "reverses the upregulated expression of LC3 mRNA and downregulated expression of osteoclastogenic markers"}
    ]}
  ]
}
